Experimental data as given in patent publication US20040214782A1, “Treatment or prevention of coccidiosis” (priority 1999, published 2004).

Tests used:
[1] = test system: Eimeria culture (93% E bovis, 4% E. auburnenis and 3% E. zuernii); assay: Example 2: prevention of coccidiosis in Eimeria challenged calves, treated day 10 post-challenge; format: in vivo; details: for clinical responses compared to saline treated animals: conclusion of Example 2; for oocyst shedding compared with the saline controls: days 19-28 post-infection; for oocyst shedding compared with the saline controls / mean daily attitude scores compared to the saline controls / mean daily fecal consistency scores compared with the saline treated calves / mean daily hydration scores compared to the saline treated calves: tilmicosin 10 mg/kg SC once, amprolium 10 mg/kg oral 5 days; for calves that died due to coccidiosis: deaths on day 23 and day 28 post-infection; for mean daily attitude scores compared to the saline controls / mean daily fecal consistency scores compared with the saline treated calves: p≦0.05; for Mortality Rates: 10 calves, 28 day study
Excerpt: Administration of amprolium was compared with tilmicosin, a commercially available macrolide antibiotic, in the prevention of coccidiosis in Eimeria challenged calves.
Sixty naive calves were housed in five holding pens (12 animals/pen). Calves were held 7 days prior to challenge in order to acclimate to the facility. On days −6, −4, and −2 pre-challenge fecal samples were obtained for semi-quantitative oocyst counts. On day −4 pre-challenge, oocysts were speciated if present. On day 0 calves were inoculated orally with the Eimeria culture. Temperatures were determined and recorded at approximately the same time each day for the duration of the study. Attitude, hydration and fecal consistency scores were evaluated daily. Post-challenge, fecal samples were collected on days 2, 4, 6, 8 and 10. Oocysts were speciated on day 10 post-challenge.
On day 10 post-challenge, each of fifty animals was randomly allotted to one of five treatment groups. Agents were either administered subcutaneously in the pre-scapular region of the neck or drench dosed orally.
Post-treatment, fecal samples were taken for semi-quantitative analysis of the shedding of coccidia oocysts on days 12, 14, 16 and 18. Beginning on day 19 and continuing through day 28, daily fecal samples were evaluated for semi-quantitative counts. Speciation of shed oocysts was performed on days 19-21, 23, 26 and 28.
Calves dying during the course of the study or euthanized due to a moribund condition associated with clinical coccidiosis were considered mortalities. Mortalities were necropsied and gross findings were recorded. At study termination (day 28), all remaining animals were weighed, euthanized, and post mortem examinations conducted.
Description of Disease Outbreak—Calves were inoculated orally with 2 ml of a coccidia challenge containing 125,000 sporulated oocysts with a species percent count of 93% E bovis, 4% E. auburnenis and 3% E. zuernii coccidia oocysts. At 19 days post-challenge, oocyst shedding was detected.

[2] = test system: bovine coccidia (Eimeria bovis ~90% and Eimeria auburnenis ~10%); assay: Example 1: coccidiosis in Eimeria challenged calves, treated once clinical disease and oocyst shedding had begun; format: in vivo; details: for mean daily attitude scores compared to the saline controls / mean daily fecal consistency scores compared to the saline treated calves / number of animals that ceased oocyst shedding compared to the saline treated calves: amprolium oral SIDX5; for Mortality Rates: 8 calves, 21 day study; for calves that died due to coccidiosis: deaths within 24 hours of dosing; for number of animals that ceased oocyst shedding compared to the saline treated calves: from day 6 post-dosing, Formula II 5 and 2.5 mg/kg
Excerpt: Administration of an azalide macrolide antibiotic according to the invention was compared with administration of amprolium, a commercially available agent, and saline control solution, in preventing full development of coccidiosis in Eimeria challenged calves.
Eighty naive calves weighing approximately 110-125 kg were housed in twenty holding pens (4 animals/pen) 16 days prior to study initiation. […] The calves were acclimated in order to facilitate coccidial exposure and allow time for clinical signs to develop. On day 14, with no signs of naturally occurring coccidiosis in the calves, each calf was challenged orally with a mixed culture of bovine coccidia (Eimeria bovis˜90% and Eimeria auburnenis ˜10%). Calves were each also challenged orally with 1.25×10^7 oocysts and observed for signs of clinical disease. On day 23 post-challenge, calves began to show signs of clinical disease and fecal samples were taken to determine oocyst shedding.
Calves were randomly allotted to one of six treatment groups. They were weighed at allotment and treatments administered subcutaneously in the pre-scapular region of the neck. Amprolium was administered by drench dosing (SIDX5) beginning on the day of allotment.
Rectal temperatures were determined and recorded at approximately the same time each day for the 21 day duration of the study. Attitude, hydration and fecal consistency scores were evaluated daily. Daily fecal samples were taken for qualitative analysis of the shedding of oocysts. Mortalities were necropsied and gross findings were recorded.
At termination of the experiment, surviving animals were weighed, euthanized, and post-mortem examinations conducted.

[3] = Formula II 5 and 2.5 mg/kg SC once, p>0.05
[4] = amprolium (Corid 20% soluble powder) oral drench SIDX5

SMILES	21 day average daily weight gain relative to saline [1]	clinical responses compared to saline treated animals [1]	oocyst shedding compared with the saline controls [1]	calves that died due to coccidiosis [1]	mean daily attitude scores compared to the saline controls [1]	mean daily fecal consistency scores compared with the saline treated calves [1]	mean daily hydration scores compared to the saline treated calves [1]	mean daily attitude scores compared to the saline controls [2, 3]	mean daily fecal consistency scores compared to the saline treated calves [2, 3]	clinical responses (clinical scores, weight gain and oocyst shedding) compared to the saline control group ([2]; conclusion of Example 1)	calves that died due to coccidiosis ([2]; azalide at 5 and 2.5 mg/kg)	number of animals that ceased oocyst shedding compared to the saline treated calves ([2]; p>0.05)	other results
CC[C@H]1OC(=O)C[C@@H](O)[C@H](C)[C@@H](O[C@@H]2O[C@H](C)[C@@H](O)[C@H](N(C)C)[C@H]2O)[C@@H](CCN2C[C@H](C)C[C@H](C)C2)C[C@@H](C)C(=O)/C=C/C(C)=C/[C@@H]1CO[C@@H]1O[C@H](C)[C@@H](O)[C@@H](OC)[C@H]1OC [Tilmicosin, tilmicosin]	responded similarly	improved clinical responses	decreased oocyst shedding	Two animals died	significant reductions	statistically significant reductions	reductions						21 Day Average Daily Gain ([1]; tilmicosin 10 mg/kg SIDX1, SC): 0.21 kg; Mortality Rates ([1]; tilmicosin 10 mg/kg SIDX1, SC): 2/10 (20%)
CCCc1ncc(C[n+]2ccccc2C)c(N)n1 [Amprolium, amprolium]	Numerical increases in weight gain	improved clinical responses	decreased oocyst shedding	One animal	significant reductions	statistically significant reductions	reductions	significant reductions	statistically significant reductions	improved clinical responses	one	significant increase	21 Day Average Daily Gain [2, 4]: 0.75 kg; Proportion of infected calves that ceased oocyst shedding 6 days post-treatment [2, 4]: 7/7 (100%); Mortality Rates [2, 4]: 1/8 (13%); 21 Day Average Daily Gain ([1]; amprolium 10 mg/kg, 5 days drench dosing): 0.60 kg; Mortality Rates ([1]; amprolium (Corid 9.6% Oral Solution) 10 mg/kg, 5 days drench dosing): 1/10 (10%)
CCCN(C)C[C@]1(O)[C@H](C)O[C@@H](O[C@H]2[C@H](C)[C@@H](O[C@@H]3O[C@H](C)C[C@H](N(C)C)[C@H]3O)[C@@](C)(O)C[C@@H](C)CN[C@H](C)[C@@H](O)[C@](C)(O)[C@@H](CC)OC(=O)[C@@H]2C)C[C@@]1(C)OC [Compound of Formula II]								significant reductions	statistically significant reductions	improved clinical responses	no mortalities	significant increase	21 Day Average Daily Gain ([2]; 2.5 mg/kg, SIDX1, SC): 1.03 kg; Proportion of infected calves that ceased oocyst shedding 6 days post-treatment ([2]; 2.5 mg/kg, SIDX1, SC): 7/8 (88%); Mortality Rates ([2]; 2.5 mg/kg, SIDX1, SC): 0/8 (0%); 21 Day Average Daily Gain ([2]; 5 mg/kg, SIDX1, SC): 0.79 kg; Proportion of infected calves that ceased oocyst shedding 6 days post-treatment ([2]; 5 mg/kg, SIDX1, SC): 7/8 (88%); Mortality Rates ([2]; 5 mg/kg, SIDX1, SC): 0/8 (0%); mean daily hydration scores compared to the saline treated calves [2, 3]: statistically significant reductions; 21 day weight gain compared to the saline controls ([2]; azalide at 5 and 2.5 mg/kg): Numerical increases in weight gain; efficacy relative to amprolium ([2]; conclusion of Example 1, less complicated dosing regimen): comparable to that of amprolium
